Patent US20060172964A1, “Methods for reducing amyloid beta levels” (priority 2005, published 2006)

Assays:
Assay type in all cases: cell-based, human
[1] = test system: APP-FL, APP-C99 and APP-C83; experiment: Western blot analysis of APP processing in H4-APP-FL cells; conditions: for protein levels of APP-FL / increase in the ratio of APP-C99 to APP-FL / increase in the ratio of APP-C83 to APP-FL: siRNA 48 hours, DAPT 250 nM
Description: (§1) We employed naïve H4 human neuroglioma (H4) cells and H4 cells stably-transfected to express either the APP-FL, or APP-C99. Peptide APP-C99 is the product of β-secretase, which, therefore, contains α- and γ-, but not β-cleavage sites. This cell line provides a valid system to assess whether any effects on APP processing is dependent on γ-secretase-mediated APP processing and independent of β-secretase-mediated APP processing. All cell lines were cultured in DMEM (high glucose) containing 9% heat-inactivated fetal calf serum, 100 units/ml penicillin, 100 μg/ml streptomycin, and 2 mM L-glutamine. Stably transfected H4 cells were additionally supplemented with 200 μg/ml G418.
Small interfering RNA (siRNA) duplexes were designed and obtained from Dharmacon Research, Inc. (Lafayette, CO 80026) against human APBA1, the gene encoding X11α (5′-GGATGCTCAGCTGATTGCA-3′; SEQ ID NO:2), APBA2, the gene encoding X11β (5′-GGTGAAGCTCAACATTGTC-3′; SEQ ID NO:3). Scrambled siRNA (5′-[…]-3α; SEQ ID NO:4) (29) was used as the control siRNA. siRNAs were transfected into cells by using electroporation (AMAXA, Gaithersburg, Md.). We mixed 1 million cells, 100 μl AMAXA electroporation transfection solution and 10 μl 20 μM siRNA together, then we employed C-9 program in the AMAXA electroporation device for the cell transfection. The transfected cells then were placed in one of the six-well plate containing 1.5 ml cell culture media. The cells were harvested 48 hours after siRNA treatments. DAPT (250 nM, 18 hours treatment time), a γ-secretase inhibitor, was employed in the experiments as a positive control.
(§2) Cell pellets were detergent-extracted on ice using immunoprecipitation buffer (10 mM Tris-HCl, pH 7.4, 150 mM NaCl, 2 mM EDTA, 0.5% Nonidet P-40) plus protease inhibitors (1 μg/ml aprotinin, 1 μg/ml leupeptin, 1 μg/ml pepstatin A). The lysates were collected, centrifuged at 12,000 rpm for 10 min, and quantified for total proteins by the BCA protein assay kit (Pierce, Rockford, Ill.).
Western blot analysis was performed as described by Xie et al. (30). Briefly, 40 μg of total protein of each sample was subjected to SDS-polyacrylamide gel electrophoresis using 4-20% gradient Tris/glycine gels under reducing conditions (Invitrogen, Carlsbad, Calif.). Next, proteins were transferred to a polyvinylidene difluoride membrane (Bio-Rad, Hercules, Calif.) using a semi-dry electrotransfer system (Amersham Biosciences, San Francisco, Calif.). Nonspecific proteins were blocked using 5% non-fat dry milk in TBST for 1.5 h. Blots were then incubated with a primary antibody, followed by a secondary antibody (horseradish peroxidase-conjugated anti-rabbit antibody 1:10,000; Pierce, Rockford, Ill.). Blots were washed with 1× TBST for 30 min between steps. Antibody H-265 (1:200, Santa Cruz Biotechnology, Santa Cruz, Calif.) was used to recognize X11α (105 kDa), antibody N-20 (1:100, Santa Cruz Biotechnology, Santa Cruz, Calif.) was used to detect X11β (135 kDa). Antibody A8717 (1:1,000, Sigma, St. Louis, Mo.) was used to visualize APP-FL (110 kDa), […] in the Western blot analysis. The intensity of signals was analyzed using an image program (NIH Image 1.62). We quantified the Western blots as follows. We used the levels of β-actin to normalize the levels of X11α, X11β, APP-FL and APP-CTF (i.e., determining the ratio of X11α amount to β-actin amount) to control for loading differences in total protein amounts. We present the changes in the protein levels of X11α, X11β, APP-FL, APP-C99 and APP-C83 in the cells treated with APBA1 or APBA2 siRNA as the percentage of those in the cells treated with control siRNA.
We next assessed the effects of RNAi-mediated silencing of APBA1 on APP processing in H4-APP-FL cells by measuring protein levels of APP-FL, APP-C99 and APP-C83 following APBA1 siRNA treatment. […]

[2] = test system: Aβ40; experiment: Sandwich ELISA of secreted Aβ in conditioned media of H4-APP-FL cells
Description: as §1
Small interfering RNA (siRNA) duplexes were designed and obtained from Dharmacon Research, Inc. (Lafayette, CO 80026) against human APBA1, the gene encoding X11α (5′-GGATGCTCAGCTGATTGCA-3′; SEQ ID NO:2), APBA2, the gene encoding X11β (5′-GGTGAAGCTCAACATTGTC-3′; SEQ ID NO:3). Scrambled siRNA (5′-[…]-3α; SEQ ID NO:4) (29) was used as the control siRNA. siRNAs were transfected into cells by using electroporation (AMAXA, Gaithersburg, Md.). […]
(§3) Following the treatment with saline, electroporation, control siRNA, APBA1 siRNA or APBA2 siRNA, conditioned media was collected, and secreted Aβ was measured by a Sandwich ELISA assay as described by Xie et al. (30). […] Plates were then developed with TMB reagent and well absorbance measured at 450 nm. Aβ levels in test samples were determined by comparison with signal from unconditioned media spiked with known quantities of Aβ40 and Aβ42.
Next, we measured Aβ levels in the conditioned media, 48 hours after treatment with control siRNA, APBA1 siRNA or γ-secretase inhibitor DAPT. Since Aβ42 was too low to be detected in many samples, we only present the changes in Aβ40 production from these experiments.
Next, we measured Aβ levels in the conditioned media 48 hours following treatments with control siRNA, APBA2 siRNA or γ-secretase inhibitor DAPT.

[3] = test system: APP-FL, APP-C99 and APP-C83; experiment: Western blot analysis of APP processing in H4-APP-C99 cells; conditions: data not shown
Description: as §1, with “G418. […]” for “G418.”
as §2
Western blot analysis was performed as described by Xie et al. (30). […] The intensity of signals was analyzed using an image program (NIH Image 1.62). We quantified the Western blots as follows. […]
We next assessed the effects of RNAi-mediated silencing of APBA1 on processing of APP-C99. […]

[4] = test system: Aβ40; experiment: Sandwich ELISA of secreted Aβ in conditioned media of H4-APP-C99 cells; conditions: data not shown
Description: as §1, with “G418. […]” for “G418.”
as §3
We next measured Aβ levels in the conditioned media 48 hours after treatment with either control siRNA or APBA1 siRNA in the H4-APP-C99 cells. […]

| Molecule | effect on APP processing as compared to saline treatment ([1]; data not shown) | effect on Aβ levels as compared to saline treatment ([2]; data not shown) | effect on APP processing as compared to saline treatment [3] | effect on Aβ levels as compared to saline treatment [4] | protein levels of APP-FL ([1]; APBA1 experiment (FIG. 1A), vs control siRNA) | protein levels of APP-FL ([1]; APBA2 experiment (FIG. 2A), vs control siRNA) | increase in the ratio of APP-C99 to APP-FL ([1]; APBA2 experiment, FIG. 2C, vs control treatment) | increase in the ratio of APP-C83 to APP-FL ([1]; APBA2 experiment, FIG. 2D, vs control treatment) | increase in the ratio of APP-C99 to APP-FL ([1]; FIG. 1C, vs control siRNA, normalized to β-actin) | increase in the ratio of APP-C83 to APP-FL ([1]; FIG. 1D, vs control siRNA, normalized to β-actin) | Aβ levels (Aβ40) in conditioned media ([2]; FIG. 1E, 48 hours after treatment, control siRNA treatment 116 pg/ml) | Aβ production (Aβ40) in conditioned media ([2]; FIG. 2E, 48 hours following treatment, control siRNA 109 pg/ml) |
| --- | --- | --- | --- | --- | --- | --- | --- | --- | --- | --- | --- | --- |
| control siRNA: Scrambled siRNA (5′-AAATGTGTGTACGTCTCCTCC-3; SEQ ID NO:4) used as the control siRNA (listed as DNA, chemistry not given here) | did not affect APP processing or alter Aβ levels | did not affect APP processing or alter Aβ levels | did not affect APP processing or alter Aβ levels | did not affect APP processing or alter Aβ levels |  |  |  |  |  |  |  |  |
| C[C@H](NC(=O)Cc1cc(F)cc(F)c1)C(=O)N[C@H](C(=O)OC(C)(C)C)c1ccccc1 [DAPT] |  |  |  |  | no significant differences | no significant difference | 270% | 245% | 310% | 250% | 70 pg/mL | 48 pg/mL |
